The target of one assay is ERα (Homo sapiens (Human), UniProt P03372). As to the kind of experiment: PRα induction assay in MCF7 cells. The settings on record: MCF7 breast cancer cells. Type of assay: cell-based. The procedure: The purpose of the following PRα induction assay is to determine whether a test compound has agonistic activity against ERα receptor (an agonist would be expected to activate the receptor).
Culture MCF7 (purchased from ATCC HTB-22) in DMEM media supplemented with 10% FBS, 0.01 mg/mL human insulin 1 and 1% penicillin/streptomycin antibiotics and plate the cells (prior to becoming 70% confluent) in 384-well flat-bottom plates at a density of 4,000 cells per well in 20 μL volume in DMEM phenol red free media containing 10% FBS (charcoal stripped). Incubate the cells overnight in a cell culture incubator (5% CO2, 95% relative humidity at 37° C.) and allow the cells to attach to the plate. The following day, dose the cells with test compound. Use an Echo 555 acoustic dispenser to prepare compound serial dilutions (1:3) in a range from 6 μM to 0.0003 μM. Dose the cells with the addition of the test compound (5 μL) from the serial dilution plate to the cell plate producing a final DMSO concentration of 0.2% with a final concentration of the test compound dose range between 2 and 0.0001 μM. For the maximum point use media containing 0.2% of DMSO and for the minimum point, use fulvestrant diluted at 2 μM final concentrations in the growth media containing 0.2% DMSO. After dosing with the test compound, incubate the cell plates at 37° C. and 5% CO2 for 24 hours. Fix the cells by adding 14% para-formaldehyde (10 μL) for 30 minutes at room temperature. Wash cells once with PBS (20 μL) and incubate with PBS (20 μL) containing 0.5% (v/v) TWEEN® 20 for 1 hour. Wash cells twice with PBS (20 μL) containing 0.05% TWEEN® 20 and block with 3% BSA in PBS containing 0.05% TWEEN® 20 and 0.1% TRITON™ X-100 (20 μL/well) for 1 hour at room temperature. […]
The following day, wash cells with PBS 0.05% TWEEN® 20 (2×20 μL) and incubate with secondary antibody (20 μL/well) (1:1000 dilution, Goat anti-rabbit IgM ALEXA FLUOR™ 488) in PBS 1% BSA for 105 minutes at room temperature. […] Scan plates with ACUMEN EXPLORER™ [Laser-scanning fluorescence microplate cytometer manufactured by TTP LABTECH LTD] to measure PRα. […]

Another assay deals with MCF7 ESR1 wild type. The assay is described as follows: Cell proliferation assay in MCF7. Type of assay: cell-based, human. The settings on record: seven days, read-out: Relative IC50 (μM) MCF7 ESR1 wild type. How it is done:
(§1) Seed MCF7 (purchased from ATCC HTB-22) cells at a density of 2,000 cells per well in DMEM phenol red free media 10% FBS (20 μL volume) (charcoal stripped) into a clear bottom 384-well cell culture plate. Plate MCF7-ESRY537N-682 (generated by CRISPR/Cas9 gene editing of ESr1 gene in MCF7 cells, clone #682) in DMEM media supplemented with 10% FBS, and 1% penicillin/streptomycin antibiotics at a density of 1000 cells per well. Incubate the plates at 37° C. and 5% CO2. The following day dose the cells with the test compound. Use an Echo 555 acoustic dispenser to prepare test compound serial dilutions (1:3) in a range from 60 μM to 0.003 μM. Dose the cells with the addition of 5 μL from the serial dilution plate to the cell plate, producing a final DMSO concentration of 0.2% with a final test compound concentration dose range between 20 and 0.001 μM. For the maximum point use media containing 0.2% of DMSO and for the minimum point use fulvestrant diluted at 2 μM final concentrations in the growth media containing 0.2% DMSO. After dosing with the test compound, incubate the cell plates at 37° C. and 5% CO2. Seven days after test compound addition, remove the plates from the incubator and add cold EtOH 96% (65 μL) to each well. […] Seal the plates and incubate 1 hour at room temperature on the bench (preserved from light). Scan the plates with ACUMEN EXPLORER™ [Laser-scanning fluorescence microplate cytometer manufactured by TTP LABTECH LTD].

In assay [1] the test system is MCF7 ESR1 Y537N mutant cells. The assay is described as follows: Cell proliferation assay in MCF7-ESR1 Y537N-682. Type of assay: cell-based, human. The settings on record: seven days, read-out: Relative IC50 (μM) MCF7 ESR1 Y537N mutant cells. How it is done:
as §1

Assay [2] concerns MCF7 ER-positive breast cancer model. The assay is described as follows: In vivo combination studies in MCF7 ER-positive breast cancer xenograft model. Also on record: species or system mice. The settings on record: Example 10 15 mpk; for Difference (Treatment 1 − Treatment 2): Treatment 1 = Vehicle, log10 tumor volume, QD × 42, PO. The text has this: Otherwise, the statistical conclusion is additive.

Read-outs that look alike come from different tables or passages of the source.

Sequence of ERα (P03372 whole entry): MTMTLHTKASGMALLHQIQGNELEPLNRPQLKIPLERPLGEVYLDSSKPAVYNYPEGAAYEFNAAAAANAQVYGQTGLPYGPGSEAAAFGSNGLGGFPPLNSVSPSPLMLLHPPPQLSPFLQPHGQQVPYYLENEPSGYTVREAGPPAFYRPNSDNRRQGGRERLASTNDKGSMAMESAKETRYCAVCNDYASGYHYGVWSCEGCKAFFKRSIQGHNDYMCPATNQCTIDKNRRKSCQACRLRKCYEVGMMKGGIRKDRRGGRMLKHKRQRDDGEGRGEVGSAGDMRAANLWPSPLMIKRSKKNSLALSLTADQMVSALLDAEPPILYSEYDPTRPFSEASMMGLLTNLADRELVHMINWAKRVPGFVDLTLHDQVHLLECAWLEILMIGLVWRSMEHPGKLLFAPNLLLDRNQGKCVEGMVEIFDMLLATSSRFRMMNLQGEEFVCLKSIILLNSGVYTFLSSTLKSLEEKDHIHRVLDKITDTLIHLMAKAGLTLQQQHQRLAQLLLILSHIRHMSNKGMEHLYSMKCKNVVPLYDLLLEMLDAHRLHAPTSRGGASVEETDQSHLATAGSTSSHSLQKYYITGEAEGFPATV

As for `Oc1ccc2c3c(cnc2c1)-c1ccc(C(F)(F)F)cc1OC3c1ccc(OCCN2CC(CF)C2)cc1` (racemic) [Example 1, 5-(4-{2-[3-(Fluoromethyl)azetidin-1-yl]ethoxy}phenyl)-8-(trifluoromethyl)-5H-[1]benzopyrano[4,3-c]quinolin-2-ol], at ERα, the agonistic activity entry is on record as “no significant agonistic activity”. The IC50 with MCF7 ESR1 wild type (Homo sapiens, MCF7, […]) worked out at 0.00768 ± 0.0126 µM; in assay [1] (Homo sapiens, MCF7, […]) it was 0.0321 ± 0.0068 µM.
`Oc1ccc2c3c(cnc2c1)-c1ccc(C(F)(F)F)cc1OC3c1ccc(OCCN2CC(CF)C2)cc1` (single isomer, unassigned) [Example 1A, 5-(4-{2-[3-(Fluoromethyl)azetidin-1-yl]ethoxy}phenyl)-8-(trifluoromethyl)-5H-[1]benzopyrano[4,3-c]quinolin-2-ol]: the agonistic activity entry at ERα was “no significant agonistic activity”. In addition, the IC50 in assay [1] came out at 1.86 ± 1.03 µM.
On to `Cc1ccc(S(=O)(=O)O)cc1.Oc1ccc2c3c(cnc2c1)-c1ccc(C(F)(F)F)cc1OC3c1ccc(OCCN2CC(CF)C2)cc1` (single isomer, unassigned; isomer 2) [Example 10, 5-(4-{2-[3-(Fluoromethyl)azetidin-1-yl]ethoxy}phenyl)-8-(trifluoromethyl)-5H-[1]benzopyrano[4,3-c]quinolin-2-ol, 4-methylbenzenesulfonic acid, Isomer 2], for which the IC50 was 0.00438 µM in the assay on MCF7 ESR1 wild type and 0.0106 µM in assay [1]. In addition, the “Delta T/C % or % Regression” value in assay [2] (Abemaciclib 50 mpk, QD × 42, PO (Table 20)) was −51%; in assay [2] (Everolimus 5 mpk, QD × 42, PO (Table 24)), −51%; in assay [2] (alpelisib 15 mpk (d1-d7), 10 mpk (d8-42), QD × 42, PO (Table 22)), −51%. The “Difference (Treatment 1 − Treatment 2)” value in assay [2] (Abemaciclib 50 mpk) was found to be 0.659; in assay [2] (Everolimus 5 mpk) it was 0.445; in assay [2] (alpelisib 15 mpk (d1-d7), 10 mpk (d8-42)), 0.241.

The record behind these values is patent US10654866B2, “Selective estrogen receptor degraders” (Eli Lilly and Company, priority 2018, dated 2020).
